One compound from PMC3101337, “Interactions of the Melanocortin-4 Receptor with the Peptide Agonist NDP-MSH” (Journal of Molecular Biology, 2010) can be followed below.

Structures are written as SMILES.

The target in this assay is T1, hMC4R mutant L106C (Homo sapiens, UniProt P32245, L106C).
T1 construct: expressed in transfected cells; host or cells: HEK293 CRE-Luciferase cells; mutant made by QuikChange on pcDNA3-MC4R
In words: CRE-Luciferase cAMP activity assay, L106C MC4R. In kind it is cell-based. Particulars: L106C MC4R in HEK293 CRE-Luciferase cells, mean ± SEM, N = 3, NA = no activity, read-out: Ligand pEC50 (converted).

T1 sequence (P32245 whole entry L106C): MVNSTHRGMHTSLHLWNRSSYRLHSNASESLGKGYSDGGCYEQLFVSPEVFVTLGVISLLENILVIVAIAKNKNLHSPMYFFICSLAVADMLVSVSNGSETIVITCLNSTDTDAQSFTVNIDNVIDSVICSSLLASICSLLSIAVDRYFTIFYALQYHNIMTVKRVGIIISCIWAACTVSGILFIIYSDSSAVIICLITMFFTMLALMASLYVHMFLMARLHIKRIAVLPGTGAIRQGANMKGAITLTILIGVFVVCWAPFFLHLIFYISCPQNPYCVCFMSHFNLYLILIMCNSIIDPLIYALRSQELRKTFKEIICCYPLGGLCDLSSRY
Procedure: Twenty-four hours posttransfection, HEK293 CRE-Luciferase cells were plated onto 96-well black-wall, clear-bottom, poly-D-lysine-coated microplates (Corning Costar) at a density of 50,000 cells/well and cultured for a further 12–18 h. […] Microtiter plates were incubated for 4 h at 37 °C, after which Luclite® reagent (Perkin-Elmer) was added to each well. The plates were sealed and subjected to dark adaptation for 5 min at room temperature. Luciferase activity was determined by scintillation counting using a TOPCount scintillation counter (Perkin-Elmer).
All measurements, except where stated, were carried out in triplicate in three independent experiments. The values quoted and depicted graphically are the means of independent determinations with the standard error of the mean. […] In a similar fashion, EC50 values were calculated from the fit of sigmoidal concentration–response curves (three-parameter fit). pIC50 refers to − log IC50, and pEC50 refers to − log EC50.

In the case of `CCCC[C@H](NC(=O)[C@H](CO)NC(=O)[C@H](Cc1ccc(O)cc1)NC(=O)[C@H](CO)NC(=O)CCCC[C@@H]1SC[C@@H]2NC(=O)N[C@@H]21)C(=O)N[C@@H](CCC(=O)O)C(=O)N[C@@H](Cc1c[nH]cn1)C(=O)N[C@H](Cc1ccccc1)C(=O)N[C@@H](CS)C(=O)N[C@@H](Cc1c[nH]c2ccccc12)C(=O)NCC(=O)N[C@@H](CCCCN)C(=O)N1CCC[C@H]1C(=O)N[C@H](C(N)=O)C(C)C` [Peptide 8], the EC50 was 6.46 nM.
